Laboratory results published in publication PMC4619705 (PLoS ONE, 2015).
“Also recorded” adds a separate entry of the source.

Assays:
Format in all cases: cell-based
[1] = target: T1, β3γ2L GABAARs (Homo sapiens, UniProt P18507+P28472); test: Two-electrode voltage clamp of β3γ2L GABAARs expressed at various β3:γ2L mRNA ratios in Xenopus oocytes; conditions: for EC50: EC50 (95% CI) of direct activation; for Effect of Zn2+ alone on baseline current: 100 μM
T1 construct: expressed in transfected cells; host or cells: Xenopus laevis oocytes injected with β3 and γ2L mRNAs at 1:1 to 1:100
Excerpt: (§1) Human complementary DNA (cDNA) of GABAAR α2 subunit (vector: pCMV6-XL5) was purchased from OriGene Technologies (Rockville, MD, USA), and the human β3 (vector: pGEMHE) and γ2L (vector: pCDM8) subunits were generous gifts from Dr. Bjarke Ebert (H. Lundbeck A/S, Valby, Denmark) and Dr. Paul Whiting (Merck, Sharp and Dohme Research Laboratories, Harlow, Essex, UK) respectively. […] Plasmid vectors with the cDNA incorporated were linearised using appropriate restriction endonucleases (α2: SmaI; β3: NheI; γ2L: NotI). Capped RNA transcripts were synthesised from linearised plasmids using the mMessage mMachine T7 transcript kit from Ambion (Austin, TX, USA). Purified messenger RNA (mRNA) was dissolved in nuclease-free water (Ambion, Austin, TX, USA), and its quality was assessed using 1% agarose gel electrophoresis. The concentration of each subunit mRNA was measured using Nanodrop ND-100 UV-Vis spectrophotometer (Thermo Fisher Scientific, North Ryde, NSW, Australia).
Various combinations of α2, β3 and γ2L subunit mRNAs were mixed to different ratios as stated in the text, and diluted accordingly to a concentration of 5 ng/μL (unless otherwise stated). […] Injected oocytes were stored in ND96 storage solution supplemented with 50 μg/mL gentamycin and tetracycline at 18°C. Two-electrode voltage clamp recordings were performed on oocytes 2–4 days post-injection at room temperature (20–25°C) using a GeneClamp 500B amplifier (ADInstruments, Sydney, NSW, Australia) or a Warner OC-725C Oocyte Clamp (Warner Instrument Corp, Hamden, CT, USA). […] The recording microelectrodes (0.2–1.1 MΩ) were generated from capillary glass (Harvard Apparatus, Holliston, MA, USA) using a single-stage glass microelectrode puller (Narishige, Tokyo, Japan), and were filled with 3 M KCl solution. The perfusion system was built using a series of polycarbonate, high-density polyethylene two-way stopcocks (Qosina, Edgewood, NY, USA), connected through tubing to the recording chamber (100 μL), where the oocyte was continuously perfused with ND96 recording solution (96 mM NaCl, 2 mM KCl, 1 mM MgCl2, 1.8 mM CaCl2, 5 mM HEPES hemisodium; pH 7.4) at an approximate rate of 5 mL/min.
(§2) Perfusates containing these chemicals were made up fresh before each application. The concentration-response curves of agonists were obtained by exposing oocytes to increasing concentrations of agonists until the currents peaked. […] All experiments were performed using at least two different batches of oocytes.
(§3) Prism (version 5.04; GraphPad Software, La Jolla, CA, USA) was used for data analysis.
(§4) In all cases, we constrained the bottom to 0, and when fitting data to the biphasic model, the Hill slopes were constrained to 1. Statistical comparisons of results for different injection ratios of β3γ2L receptors were performed using ANOVA with Tukey’s post-hoc test. When comparing results from different injection ratios of β3γ2L receptors with α2β3γ2L receptors, the ANOVA Dunnett’s test was used. Pairwise comparisons were performed using Student’s t test. Statistical significance was attained at p < 0.05.

[2] = target: T2, α2β3 GABAARs (Homo sapiens, UniProt P28472+P47869); test: Two-electrode voltage clamp of binary α2β3 GABAARs expressed in Xenopus oocytes; conditions: α2β3 20:1; 100 μM
T2 construct: expressed in transfected cells; host or cells: Xenopus laevis oocytes injected with capped mRNA, α2:β3 20:1
T2 sequence (P47869 29-451): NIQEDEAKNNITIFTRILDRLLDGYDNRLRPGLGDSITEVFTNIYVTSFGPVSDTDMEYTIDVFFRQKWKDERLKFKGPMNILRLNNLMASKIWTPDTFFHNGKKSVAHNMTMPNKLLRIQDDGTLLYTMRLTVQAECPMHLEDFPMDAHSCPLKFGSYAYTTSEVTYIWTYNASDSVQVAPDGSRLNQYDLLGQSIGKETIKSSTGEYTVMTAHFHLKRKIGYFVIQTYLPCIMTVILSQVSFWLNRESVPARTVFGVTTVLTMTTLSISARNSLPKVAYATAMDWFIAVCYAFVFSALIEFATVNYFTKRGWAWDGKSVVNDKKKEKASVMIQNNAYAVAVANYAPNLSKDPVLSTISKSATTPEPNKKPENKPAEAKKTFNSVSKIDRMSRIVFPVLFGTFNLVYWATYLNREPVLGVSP
T2 sequence (P28472 26-473): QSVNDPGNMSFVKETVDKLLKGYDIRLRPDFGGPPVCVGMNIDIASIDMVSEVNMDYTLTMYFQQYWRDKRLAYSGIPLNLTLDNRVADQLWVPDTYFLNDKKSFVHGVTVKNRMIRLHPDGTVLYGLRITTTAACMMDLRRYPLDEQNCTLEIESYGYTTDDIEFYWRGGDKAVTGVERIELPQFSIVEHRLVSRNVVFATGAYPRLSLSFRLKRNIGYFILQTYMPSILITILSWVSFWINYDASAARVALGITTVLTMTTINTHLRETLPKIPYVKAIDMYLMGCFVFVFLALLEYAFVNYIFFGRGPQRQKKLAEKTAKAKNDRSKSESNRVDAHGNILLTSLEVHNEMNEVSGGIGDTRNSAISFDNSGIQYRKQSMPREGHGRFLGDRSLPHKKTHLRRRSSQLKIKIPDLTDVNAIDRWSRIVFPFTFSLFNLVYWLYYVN
Excerpt: as §1
(§5) Various combinations of α2, β3 and γ2L subunit mRNAs were mixed to different ratios as stated in the text, and diluted accordingly to a concentration of 5 ng/μL (unless otherwise stated). […] Injected oocytes were stored in ND96 storage solution supplemented with 50 μg/mL gentamycin and tetracycline at 18°C. Two-electrode voltage clamp recordings were performed on oocytes 2–4 days post-injection at room temperature (20–25°C) using a GeneClamp 500B amplifier (ADInstruments, Sydney, NSW, Australia) or a Warner OC-725C Oocyte Clamp (Warner Instrument Corp, Hamden, CT, USA). All experiments were conducted at a holding potential of –60 mV, and data were acquired with a PowerLab 2/25, and LabChart (version 5.0.2) software (ADInstruments, Sydney, NSW, Australia). The recording microelectrodes (0.2–1.1 MΩ) were generated from capillary glass (Harvard Apparatus, Holliston, MA, USA) using a single-stage glass microelectrode puller (Narishige, Tokyo, Japan), and were filled with 3 M KCl solution. The perfusion system was built using a series of polycarbonate, high-density polyethylene two-way stopcocks (Qosina, Edgewood, NY, USA), connected through tubing to the recording chamber (100 μL), where the oocyte was continuously perfused with ND96 recording solution (96 mM NaCl, 2 mM KCl, 1 mM MgCl2, 1.8 mM CaCl2, 5 mM HEPES hemisodium; pH 7.4) at an approximate rate of 5 mL/min.
as §2, §3, §4

[3] = target: T3, γ2L homomeric receptors (Homo sapiens, UniProt P18507); test: Two-electrode voltage clamp of γ2L homomeric receptors expressed in Xenopus oocytes; conditions: 100 μM
T3 construct: expressed in transfected cells; host or cells: Xenopus laevis oocytes injected with γ2L mRNA alone (high amounts)
Excerpt: as §1, §5, §2

[4] = target: T4, α2γ2L receptors (Homo sapiens, UniProt P18507+P47869); test: Two-electrode voltage clamp of binary α2γ2L receptors expressed in Xenopus oocytes
T4 construct: expressed in transfected cells; host or cells: Xenopus laevis oocytes injected with α2 and γ2L mRNAs
Excerpt: as §1, §5, §2

[5] = target: T5, β3 homomeric receptors (Homo sapiens, UniProt P28472); test: Two-electrode voltage clamp of β3 homomeric receptors expressed in Xenopus oocytes; conditions: β3 homomeric receptors; 0.1–300 μM etomidate
T5 construct: expressed in transfected cells; host or cells: Xenopus laevis oocytes injected with β3 mRNA (5 ng/oocyte)
T5 sequence (P28472 26-473): T2 sequence (P28472 26-473)
Excerpt: as §1, §5, §2
Prism (version 5.04; GraphPad Software, La Jolla, CA, USA) was used for data analysis. […]

T3 sequence (P18507 40-475): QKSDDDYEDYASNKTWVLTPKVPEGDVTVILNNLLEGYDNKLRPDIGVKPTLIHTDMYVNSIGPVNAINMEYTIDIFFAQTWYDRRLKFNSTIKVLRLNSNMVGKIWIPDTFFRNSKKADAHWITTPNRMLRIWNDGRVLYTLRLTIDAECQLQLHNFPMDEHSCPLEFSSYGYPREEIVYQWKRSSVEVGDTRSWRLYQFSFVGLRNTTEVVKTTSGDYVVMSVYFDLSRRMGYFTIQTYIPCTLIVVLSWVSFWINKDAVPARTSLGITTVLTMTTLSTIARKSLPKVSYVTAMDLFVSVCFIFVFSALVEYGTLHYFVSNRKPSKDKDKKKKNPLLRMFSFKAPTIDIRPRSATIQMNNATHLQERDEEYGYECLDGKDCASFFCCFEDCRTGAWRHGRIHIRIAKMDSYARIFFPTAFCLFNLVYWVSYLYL
T1 sequence (P18507 40-475, one chain of several): as the sequence (P18507 40-475) above
T4 sequence (P18507 40-475, one chain of several): as the sequence (P18507 40-475) above

CC(C)c1cccc(C(C)C)c1O [Propofol]
EC50 ([1]; β3γ2L 1:15, -60 mV): 85 µM | EC50 ([1]; β3γ2L 1:100, -60 mV): 74 µM | E max ± SEM (300 μM propofol-elicited current normalised against 3 mM GABA response) ([1]; β3γ2L 1:15, -60 mV): 5.7 ± 0.55 | n H ± SEM (Hill slope) of direct activation ([1]; β3γ2L 1:15, -60 mV): 1.4 ± 0.50 | E max ± SEM (300 μM propofol-elicited current normalised against 3 mM GABA response) ([1]; β3γ2L 1:15, -60 mV, listed as propofol): approximately 6 | E max ± SEM (300 μM propofol-elicited current normalised against 3 mM GABA response) ([1]; β3γ2L 1:100, -60 mV): 0.64 ± 0.23 | n H ± SEM (Hill slope) of direct activation ([1]; β3γ2L 1:100, -60 mV): 2.0 ± 1.2

[Cl-].[Cl-].[Zn+2] [Zn^2+, zinc chloride]
Effect of Zn2+ alone on baseline current [2]: lack of activity | Effect of Zn2+ alone on constitutive activity ([3]; 28–35 ng/oocyte): inhibited | Effect of Zn2+ alone ([4]; α2γ2L 1:1, 100 μM): no function | Effect of Zn2+ alone on baseline current ([1]; β3γ2L 1:15): reduction in inward current; also recorded: sensitive to the inhibition | Effect of Zn2+ alone on baseline current ([1]; β3γ2L 1:50): did not have any effects | Effect of Zn2+ alone on baseline current ([1]; β3γ2L 1:100): did not have any effects

CCOC(=O)c1cncn1[C@H](C)c1ccccc1 [Etomidate]
E max, normalised against 60 mM GABA [5]: 15 ± 0.79 | Direct activation by etomidate ([3]; γ2L alone): not sensitive; also recorded: did not activate | Direct activation by etomidate ([4]; α2γ2L, data not shown): did not activate | E max ± SEM (300 μM etomidate-elicited current normalised against 3 mM GABA response) ([1]; β3γ2L 1:15, -30 mV): 9.9 ± 0.84 | n H ± SEM (Hill slope) of direct activation ([1]; β3γ2L 1:15, -30 mV): 1.3 ± 0.33 | E max ± SEM (30 μM etomidate-elicited current normalised against 3 mM GABA response) ([1]; β3γ2L 1:15, -60 mV): 20 ± 1.8 | n H ± SEM (Hill slope) of direct activation ([1]; β3γ2L 1:15, -60 mV): 2.0 ± 0.32 | E max ± SEM (300 μM etomidate-elicited current normalised against 3 mM GABA response) ([1]; β3γ2L 1:50, -60 mV): 5.5 ± 0.80 | n H ± SEM (Hill slope) of direct activation ([1]; β3γ2L 1:50, -60 mV): 1.3 ± 0.37 | E max ± SEM (300 μM etomidate-elicited current normalised against 3 mM GABA response) ([1]; β3γ2L 1:100, -30 mV): 2.8 ± 0.50 | n H ± SEM (Hill slope) of direct activation ([1]; β3γ2L 1:100, -30 mV): 1.2 ± 0.50 | E max ± SEM (300 μM etomidate-elicited current normalised against 3 mM GABA response) ([1]; β3γ2L 1:100, -60 mV): 3.2 ± 0.40 | n H ± SEM (Hill slope) of direct activation ([1]; β3γ2L 1:100, -60 mV): 1.5 ± 0.46
